# Where “and” joins values, the source holds several entries; their conditions need not be identical. Equal values may be shown once.
# Legend:
# SARS-CoV-2 3CLPro = SARS-CoV-2 3CLPro (Severe acute respiratory syndrome coronavirus 2, UniProt P0DTD1); assay: Native-PAGE binding with SARS-CoV-2 viral 3CLPro (Example 8); conditions: 62.5-1000 μM samples mixed with 40 μM 3CLPro, 4° C., 3 hours
# 3CLPro = 3CLPro (Severe acute respiratory syndrome coronavirus 2, UniProt P0DTD1); conditions: cited from earlier work; for IC50: read-out: IC50 (inhibition of 3CLPro), summary of Table 3
# SARS-CoV-2 = SARS-CoV-2 virucidal assay in Vero E6 cells (qPCR of viral genome); format: cell-based; conditions: Vero E6, MOI=0.01, 24 h
# 2019-nCoV 3CLPro = 2019-nCoV 3CLPro (Severe acute respiratory syndrome coronavirus 2, UniProt P0DTD1); assay: 2019-nCoV 3CLPro proteolytic activity, fluorogenic substrate, samples at 3 μM (Example 4); format: biochemical; conditions: estimated from single concentration 3 μM; read-out: approximately half maximal inhibition (IC50) at the concentration
Structure (SMILES),binding to SARS-CoV-2 3CLPro by native-PAGE (mobility shift) (SARS-CoV-2 3CLPro),IC50 (3CLPro),other results
"O=C(O)c1cc(O)c(O)c(O)c1 [GA, gallic acid]",no significant binding,–,–
Cc1cccc(C)c1OCC(=O)N[C@@H](Cc1ccccc1)[C@@H](O)C[C@H](Cc1ccccc1)NC(=O)[C@H](C(C)C)N1CCCNC1=O [Lopinavir],–,> 100 µM,"IC50 of the 3CLPro (result in words) (3CLPro; 20 μM, Ma et al., 2020): 20 μM, failed to inhibit"
Cc1c(O)cccc1C(=O)N[C@@H](CSc1ccccc1)[C@H](O)CN1C[C@H]2CCCC[C@H]2C[C@H]1C(=O)NC(C)(C)C [Nelfinavir],–,> 100 µM,–
CCC(CC)COC(=O)[C@H](C)N[P@](=O)(OC[C@H]1O[C@@](C#N)(c2ccc3c(N)ncnn23)[C@H](O)[C@@H]1O)Oc1ccccc1 [Remdesivir],–,–,EC99 (SARS-CoV-2; cell layer): 15 µM and 15.000 µM; EC99 (SARS-CoV-2; supernatant): 15 µM and 15.000 µM
O=C(OC[C@H]1O[C@H](OC(=O)c2cc(O)c(O)c(O)c2)[C@H](OC(=O)c2cc(O)c(O)c(O)c2)[C@@H](OC(=O)c2cc(O)c(O)c(O)c2)[C@@H]1OC(=O)c1cc(O)c(O)c(O)c1)c1cc(O)c(O)c(O)c1 [Sample 1],–,–,potency estimated from few doses (2019-nCoV 3CLPro): ~3 µM
"O=C(OC[C@H]1O[C@@H](OC(=O)c2cc(O)c(O)c(O)c2)[C@H](OC(=O)c2cc(O)c(O)c(O)c2)[C@@H](OC(=O)c2cc(O)c(O)c(O)c2)[C@@H]1OC(=O)c1cc(O)c(O)c(O)c1)c1cc(O)c(O)c(O)c1 [Sample 2, (2S,3R,4S,5R,6R)-3,4,5-tris(3,4,5-trihydroxybenzoyloxy)-6-((3,4,5-trihydroxybenzoyloxy)methyl)oxan-2-yl 3,4,5-trihydroxybenzoate]",–,–,potency estimated from few doses (2019-nCoV 3CLPro): ~3 µM
"O=C(OC[C@H]1O[C@@H](OC(=O)c2cc(O)c(O)c(OC(=O)c3cc(O)c(O)c(O)c3)c2)[C@H](OC(=O)c2cc(O)c(O)c(OC(=O)c3cc(O)c(O)c(O)c3)c2)[C@@H](OC(=O)c2cc(O)c(O)c(OC(=O)c3cc(O)c(O)c(O)c3)c2)[C@@H]1OC(=O)c1cc(O)c(O)c(OC(=O)c2cc(O)c(O)c(O)c2)c1)c1cc(O)c(O)c(OC(=O)c2cc(O)c(O)c(O)c2)c1 [Sample 4, (2S,3R,4S,5R,6R)-3,4,5-tris(3,4-dihydroxy-5-(3,4,5-trihydroxybenzoyloxy)benzoyloxy)-6-((3,4-dihydroxy-5-(3,4,5-trihydroxybenzoyloxy)benzoyloxy)methyl)oxan-2-yl 3,4-dihydroxy-5-(3,4,5-trihydroxybenzoyloxy)benzoate]",significant binding,–,–
"O=C(OC[C@H]1O[C@@H](OC(=O)c2cc(O)c(O)c(OC(=O)c3cc(O)c(O)c(OC(=O)c4cc(O)c(O)c(O)c4)c3)c2)[C@H](OC(=O)c2cc(O)c(O)c(OC(=O)c3cc(O)c(O)c(OC(=O)c4cc(O)c(O)c(O)c4)c3)c2)[C@@H](OC(=O)c2cc(O)c(O)c(OC(=O)c3cc(O)c(O)c(OC(=O)c4cc(O)c(O)c(O)c4)c3)c2)[C@@H]1OC(=O)c1cc(O)c(O)c(OC(=O)c2cc(O)c(O)c(OC(=O)c3cc(O)c(O)c(O)c3)c2)c1)c1cc(O)c(O)c(OC(=O)c2cc(O)c(O)c(OC(=O)c3cc(O)c(O)c(O)c3)c2)c1 [Sample 6, (2S,3R,4S,5R,6R)-6-(((3-((3,4-dihydroxy-5-((3,4,5-trihydroxybenzoyl)oxy)benzoyl)oxy)-4,5-dihydroxybenzoyl)oxy)methyl)tetrahydro-2H-pyran-2,3,4,5-tetrayl tetrakis(3-((3,4-dihydroxy-5-((3,4,5-trihydroxybenzoyl)oxy)benzoyl)oxy)-4,5-dihydroxybenzoate)]",significant binding,–,–
CC(C)(C)NC(=O)[C@@H]1C[C@@H]2CCCC[C@@H]2CN1C[C@@H](O)[C@H](Cc1ccccc1)NC(=O)[C@H](CC(N)=O)NC(=O)c1ccc2ccccc2n1 [Saquinavir],–,> 100 µM,–
CCC[C@@]1(CCc2ccccc2)CC(O)=C([C@H](CC)c2cccc(NS(=O)(=O)c3ccc(C(F)(F)F)cn3)c2)C(=O)O1 [Tipranavir],–,> 100 µM,–

# From patent US11779561B2, “Compounds and pharmaceutical uses thereof” (priority 2020, dated 2023)
